In patent US6451851B1, “Pharmaceutical composition with antiviral activity containing an hydroxymic acid derivative and an antiviral agent” (N-Gene Research Laboratories Inc., priority 1997, dated 2002):

Biological target: T1, Recombinant M-MuLV reverse transcriptase (Moloney murine leukemia virus, UniProt P03355)
T1 construct: Recombinant M-MuLV reverse transcriptase was purchased from New England Biolabs, USA; purchased New England Biolabs
Assay: Inhibition of M-MuLV reverse transcriptase activity ((3H)dTTP incorporation)
Format: biochemical
Procedure: The enhanced antiviral effect of the pharmaceutical composition of the invention was investigated by testing the inhibitory effect thereof on reverse transcriptase activity of Moloney murine virus(M-MuLV). Recombinant M-MuLV reverse transcriptase was purchased from New England Biolabs, USA. Measurement of the activity was carried out by investigating the poli(rA)noligo(dT)12-18 template-primer directed incorporation of (^3H)dTTP(Amersham) into the cDNS.
In each case, the final volume of the reaction mixture was 20 microliters. The composition of the reaction mixture was as follows:
2 microliters of 10× reverse transcriptase buffer,
20 microgram/ml template primer,
the test compound (dissolved in 1× reverse transcriptase buffer solution).
The composition of the 10× reverse transcriptase buffer (1 liter of solution contains the following substances):
500 mM tris-hydrochloride/tris (hydroxy-methyl)-amino-methan-hydrochloride/(pH=8,3),
300 mM potassium-chloride, and
100 mM DTT (dithiotreitol).
The test materials were AZT and compound “L” added separately or together. The reaction was initiated by adding 5U reverse transcriptase. The reaction mixture was incubated for 40 min at 37° C. Then, 15 microliters of reaction mixture was transferred to Whatman DE81 filter-paper disc, washed by 5% by mass of aqueous disodium-hydrogen-phosphate buffer, by water, and then with 96% by mass of ethanol. After drying, the discs were transferred into 5 ml of scintillation liquid (OptiPhase ‘HiSafe 3’, Wallac), and the radioactivity of samples was measured by a Packard Tri-Carb 2200 CE liquid scintillation counter. Enzymatic activity was calculated in percent from the experimental results.

SMILES | Activity (%) (0.02 mg/ml compound “L”, control = 100) | Activity (%) (0.03 mg/ml compound “L”, control = 100) | inhibitory effect (compound “L” alone) | activity at 0.1 µM (0.1 microM/ml AZT, control = 100) | activity at 0.2 µM (0.2 microM/ml AZT, control = 100) | inhibitory effect on M-MuLV reverse transcriptase (in words) (AZT by itself, in the concentrations applied)
Cl.Cl.NC(=NOCC(O)CN1CCCCC1)c1cccnc1 (stereo not drawn) [compound “L”, 0-(3-piperidino-2-hydroxy-1-propyl)nicotinic acid amid-oxime dihydrochloride] | 75% | 74% | about 25% | – | – | –
Cc1cn([C@H]2C[C@H](N=[N+]=[N-])[C@@H](CO)O2)c(=O)[nH]c1=O [AZT, 3′-azido-3′-deoxythymidine] | – | – | – | 91% | 84% | only minor inhibitory effect
